{"source": "paper PMC6366974", "about": "“The curcumin analog EF24 is a novel senolytic agent” (Aging (Albany NY), 2019)", "key": {"[1]": {"system": "IMR-90 fibroblasts IR-SCs", "test": "Cell viability assay (flow cytometry, PI)", "format": "cell-based", "settings": "Homo sapiens, IMR-90, 72 h"}, "Bcl-xl": {"system": "Bcl-xl", "test": "Western blotting of protein expression in WI-38 cells", "format": "cell-based, human", "settings": "72 h", "experimental": "(§1) After treatment with vehicle or EF24 at 0.5, 1 and 2 µM for 72 h, WI-38 NCs or IR-SCs were harvested in 1.5mL microcentrifuge tubes, and lysed in RIPA buffer with EDTA and EGTA (Cat. No. BP-115DG, Boston BioProducts, Ashland, MA, USA) supplemented with 1% protease inhibitor cocktail (Cat. No. P8340, Sigma-Aldrich, St. Louis, MO, USA) and 1% phosphatase inhibitor cocktail (Cat. No. P0044, Sigma-Aldrich, St. Louis, MO, USA). An equal amount of protein (30 µg/lane) from each cell extract was resolved on a precast gel (Mini-PROTEAN TGX™, Cat. No. 456-1094, Bio-Rad, Hercules, CA, USA). Proteins were blotted to a precut 0.2 µm PVDF membrane (Invitrolon™, Cat. No. LC2002, Life Technologies, Carlsbad, CA, USA) by electrophoresis. The membranes were blocked with 1X TBS-Tween (TBST, Cat. No. J77500, Affymetrix, Santan Clara, CA, USA) containing 5% non-fat dry milk (Cat. No. sc-2324, Santa Cruz Biotechnology, Dallas, TX, USA), and subsequently probed with primary antibodies at a predetermined optimal concentration overnight at 4°C. The primary antibodies including Bcl-xl (Cat. No. 2762), Mcl-1 (Cat. No. 5453), and Bcl-2 (Cat. No. 2872) and β-actin (Cat. No. 4970) were purchased from Cell Signaling Technology (Danvers, MA, USA). After washing with TBST for 3 times (10 min each time), the membranes were incubated with the secondary horse radish peroxidase (HRP)-linked antibody (Cat. No. 7074, Cell Signaling Technology, Danvers, MA, USA) for 2 h at room temperature. Following sufficient washing with TBST, the membranes were incubated with chemiluminescent HRP substrate (Immobilon™ Western, Cat. No. P36599, MilliporeSigma, Billerica, MA, USA) that consists of equal volume of luminol reagent and peroxide solution. The blotting membranes were recorded using autoradiography (SRX-101, Konica, Shinjuku, Tokyo, Japan). For the proteasome inhibition experiment, IR-SCs were treated with vehicle (0.1% DMSO) or 1 µM MG132 (Cat. No. S2619, Selleckchem, Houston, TX, USA) for 1 h prior to the incubation with EF24 at 0, 0.5, 1 and 2 µM for 72h."}, "Mcl-1": {"system": "Mcl-1", "test": "Western blotting of protein expression in WI-38 cells", "format": "cell-based, human", "settings": "WI-38 IR-SCs, 0.5, 1 and 2 µM, 72 h", "experimental": "as §1"}, "Bcl-2": {"system": "Bcl-2", "test": "Western blotting of protein expression in WI-38 cells", "format": "cell-based, human", "settings": "WI-38 IR-SCs, 0.5, 1 and 2 µM, 72 h; did not reach statistical significance", "experimental": "as §1"}, "WI-38 IR-SCs": {"system": "WI-38 IR-SCs", "test": "Combination treatment cell viability and coefficient of drug interaction (CDI)", "format": "cell-based, human", "settings": "72 h", "experimental": "Number of viable cells were quantified using flow cytometry as previously described with slight modifications. Specifically, NCs and SCs were incubated with vehicle (0.1% DMSO) or a test compound at indicated concentrations for 72 h. Following dissociation with 0.25% Trypsin-EDTA (Cat. No. 25200056, Thermo Fisher Scientific, Waltham, MA, USA) at 37°C for 5 min, the cells were harvested in 100 µl pre-cooled phosphate buffered saline (PBS, Cat. No. 20012027, Thermo Fisher Scientific, Waltham, MA, USA) containing 2% FBS and 100 ng/mL propidium iodide (PI, P4170, Sigma-Aldrich, St. Louis, MO, USA) and analyzed using flow cytometry (LSR II, BD Biosciences, San Jose, CA, USA). Percentage of viable cells were determined by counting the number of PI negative cells (viable cells) and then calculated as a ratio of control cells treated with vehicle. In addition, dose-response curves were generated for each compound, and the concentration for 50% of maximal effect (EC50 values) was calculated using GraphPad Prism 6.\nThe data were analyzed by analysis of variance (ANOVA) with GraphPad Prism 6 (GraphPad Software, La Jolla, CA, USA). […] To detect the synergistic senolytic activities of EF24 and ABT263, CDI was calculated as previously described."}, "pre-adipocytes IR-SCs": {"system": "pre-adipocytes IR-SCs", "test": "Cell viability assay (flow cytometry, PI)", "format": "cell-based", "settings": "Homo sapiens; Pre-adipocyte, 72 h"}, "HREC IR-SCs": {"system": "HREC IR-SCs", "test": "Cell viability assay (flow cytometry, PI)", "format": "cell-based", "settings": "Homo sapiens, 72 h"}, "cancer cells": {"system": "cancer cells", "set-up": "method as in PMID 15210154", "settings": "more potent than curcumin; cited from earlier work"}}, "data": [{"smiles": "O=C1/C(=C/c2ccccc2F)CNC/C1=C\\c1ccccc1F", "note": "[EF24]", "values": [{"measurement": "EC50", "setting": "[1]", "result": 1720, "unit": "nM"}, {"measurement": "expression of Bcl-xl in IR-SCs", "setting": "Bcl-xl; WI-38 IR-SCs, 0.5, 1 and 2 µM", "result": "significantly reduce"}, {"measurement": "expression of Bcl-xl in NCs", "setting": "Bcl-xl; WI-38 NCs, 0.5, 1 and 2 µM", "result": "not in NCs"}, {"measurement": "expression of Mcl-1 in IR-SCs", "setting": "Mcl-1", "result": "significantly reduce"}, {"measurement": "levels of Bcl-2 in IR-SCs", "setting": "Bcl-2", "result": "slightly reduced"}, {"measurement": "cell viability of IR-SCs, agent alone", "setting": "WI-38 IR-SCs", "result": "dose-dependently reduce"}, {"measurement": "EC50", "setting": "pre-adipocytes IR-SCs", "result": 5040, "unit": "nM"}, {"measurement": "EC50", "setting": "HREC IR-SCs", "result": 1150, "unit": "nM"}, {"measurement": "potency in inducing cancer cell death relative to curcumin", "setting": "cancer cells", "result": 10, "unit": "fold"}]}]}
